5 compounds from US10093656B2, “Fused-ring or tricyclic aryl pyrimidine compound used as kinase inhibitor” (NANJING SANHOME PHARMACEUTICAL CO., LTD, priority 2015, dated 2018) can be followed below.

The subject of experiment [1] is A431 cells EGFR WT. The experiment in a line: A431 cell viability assay (Cell Titer-Glo, 6 days). In kind it is cell-based, human. Particulars: for IC50: Homo sapiens, A-431, 144 h, A431 cells, 6 days; for A431:NCI-H1975 (ratio): ratio of cell IC50 A431 to NCI-H1975. As for the experimental part:
(§1) RPMI1640, fetal bovine serum, penicillin/streptomycin solution were purchased from Life Technology (Madison, Wis.). Cell Titer-Glo luminescent cell viability reagents were purchased from Promega (Madison, Wis.). A431 cell line and NCI-H1975 cell line were purchased from European Collection of Cell Cultures (ECACC). Plate Reader Instrument: Envision (PerkinElmer).
(§2) 384-Well plates, 300 of A431 cells and NCI-H1975 cells were inoculated per well, a volume of which was 45 μL. And the plates were incubated overnight in a CO2 incubator at 37° C. The test compound was diluted 3-fold to obtain 10 dose concentrations, the final concentrations of which were from 10 μM to 0.508 nM, two wells. The middle plates were filled with 49 μL of medium per well. 1 μL of compound in the gradient dilution compound plates was transferred to the middle plates and mixed well. And then 5 μL liquid in the middle plates was taken to the cell plates. The cells were incubated in a CO2 incubator for 6 days. After 6 days, 25 μL of detection reagents was added. And then the mixture was incubated at room temperature for 10 minutes and the plates were read by Envision.
(§3) The reading is converted to the suppression rate by the following formula (%) (Max-Sample)/(Max-Min)*100%. IC50 Data was measured by Four-parameter curve fitting (Model 205 in XLFIT5, IDBS).
On the technique in general: In ATP-based viability assays light output follows the ATP content of the culture.

Experiment [2] concerns NCI-H1975 cells EGFR L858R/T790M. The experiment in a line: NCI-H1975 cell viability assay (Cell Titer-Glo, 6 days). It counts as cell-based. The note with it: Homo sapiens, 144 h. On the procedure:
as §1, §2, §3

For experiment [3], the target named is T1, EGFR T790M/L858R (Homo sapiens, UniProt P00533, L858R/T790M).
T1 construct: purchased Life technology (Madison, Wis.)
T1 sequence (P00533 25-1210 T790M/L858R): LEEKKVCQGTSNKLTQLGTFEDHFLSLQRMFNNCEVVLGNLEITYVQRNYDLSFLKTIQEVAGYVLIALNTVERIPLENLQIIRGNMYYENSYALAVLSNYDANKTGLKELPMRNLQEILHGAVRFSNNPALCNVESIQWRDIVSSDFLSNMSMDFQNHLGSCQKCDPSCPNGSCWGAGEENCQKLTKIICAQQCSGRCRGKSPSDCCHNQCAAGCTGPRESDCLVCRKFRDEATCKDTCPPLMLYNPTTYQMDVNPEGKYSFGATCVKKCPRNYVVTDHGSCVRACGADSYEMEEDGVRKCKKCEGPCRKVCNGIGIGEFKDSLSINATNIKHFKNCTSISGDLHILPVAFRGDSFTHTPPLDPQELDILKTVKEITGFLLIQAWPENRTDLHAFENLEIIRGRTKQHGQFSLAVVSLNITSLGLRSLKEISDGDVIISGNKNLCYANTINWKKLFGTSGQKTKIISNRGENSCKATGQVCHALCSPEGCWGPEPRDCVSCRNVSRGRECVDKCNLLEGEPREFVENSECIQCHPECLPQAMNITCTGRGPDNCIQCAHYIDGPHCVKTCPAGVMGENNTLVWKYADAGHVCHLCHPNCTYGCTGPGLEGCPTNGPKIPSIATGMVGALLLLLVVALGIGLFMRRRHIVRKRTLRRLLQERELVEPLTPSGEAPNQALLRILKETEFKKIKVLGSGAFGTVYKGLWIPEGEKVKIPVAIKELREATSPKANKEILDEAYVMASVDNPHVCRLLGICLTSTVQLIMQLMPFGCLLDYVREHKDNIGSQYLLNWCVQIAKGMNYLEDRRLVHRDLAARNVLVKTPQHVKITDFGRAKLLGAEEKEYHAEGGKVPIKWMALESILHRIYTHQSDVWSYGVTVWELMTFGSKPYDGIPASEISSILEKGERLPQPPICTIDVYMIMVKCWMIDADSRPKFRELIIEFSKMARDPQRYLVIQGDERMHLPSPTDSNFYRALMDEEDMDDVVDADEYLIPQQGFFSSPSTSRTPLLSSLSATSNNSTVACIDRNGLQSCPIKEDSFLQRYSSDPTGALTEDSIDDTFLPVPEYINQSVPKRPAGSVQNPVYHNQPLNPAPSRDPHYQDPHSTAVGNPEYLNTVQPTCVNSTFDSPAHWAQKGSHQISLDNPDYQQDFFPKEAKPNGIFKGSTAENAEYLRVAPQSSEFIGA
The experiment in a line: EGFR T790M/L858R enzyme HTRF inhibition assay. It counts as biochemical. The note with it: 20 μM ATP, read-out: EGFR L858R/T79M IC50. As for the experimental part: (§4) Enzyme: EGFR wild type, EGFR T790M/L858R, EGFR T790M and INSR were purchased from Life technology (Madison, Wis.), EGFR d746-750/T790M was purchased from Carna Biosciences (Japan).
(§5) HTRF Kit was purchased from Cis-Bio International which contained the Eu-labeled TK1 antibody, XL665 and biotin-labeled TK1 polypeptide substrates.
(§6) Detecting instrument: Envision (PerkinElmer).
(§7) The test compound was diluted 3-fold to obtain 10 doses of which the final concentration was from 300 nM to 0.015 nM.
EGFR T790M/L858R Enzyme Reaction Mixture System:
0.04 nM EGFR T790M/L858R, 1 μM biotin-TK1 peptide, 20 μM ATP enzyme buffer, a total of which was 10 μL. The reaction plate was white Proxiplate 384-Plus plate (PerkinElmer) and the mixture was reacted at 23° C. for 60 minutes.
(§8) Reaction Detection: 10 μL of detection reagent containing Antibody 2 nM and XL665 62.5 nM was added, and the reagent was incubated at 23° C. for 60 minutes. The plates were read by Envision.
(§9) The reading is converted to the suppression rate (%) by the following formula […]/(Max-Min)*100%. IC50 Data was measured by four-parameter curve fitting (Model 205 in XLFITS, IDBS).
A general note: In TR-FRET formats the signal depends on donor and acceptor labels being close together.

The target in experiment [4] is T2, EGFR wild type (Homo sapiens, UniProt P00533).
T2 construct: purchased Life technology (Madison, Wis.)
T2 sequence (P00533 25-1210): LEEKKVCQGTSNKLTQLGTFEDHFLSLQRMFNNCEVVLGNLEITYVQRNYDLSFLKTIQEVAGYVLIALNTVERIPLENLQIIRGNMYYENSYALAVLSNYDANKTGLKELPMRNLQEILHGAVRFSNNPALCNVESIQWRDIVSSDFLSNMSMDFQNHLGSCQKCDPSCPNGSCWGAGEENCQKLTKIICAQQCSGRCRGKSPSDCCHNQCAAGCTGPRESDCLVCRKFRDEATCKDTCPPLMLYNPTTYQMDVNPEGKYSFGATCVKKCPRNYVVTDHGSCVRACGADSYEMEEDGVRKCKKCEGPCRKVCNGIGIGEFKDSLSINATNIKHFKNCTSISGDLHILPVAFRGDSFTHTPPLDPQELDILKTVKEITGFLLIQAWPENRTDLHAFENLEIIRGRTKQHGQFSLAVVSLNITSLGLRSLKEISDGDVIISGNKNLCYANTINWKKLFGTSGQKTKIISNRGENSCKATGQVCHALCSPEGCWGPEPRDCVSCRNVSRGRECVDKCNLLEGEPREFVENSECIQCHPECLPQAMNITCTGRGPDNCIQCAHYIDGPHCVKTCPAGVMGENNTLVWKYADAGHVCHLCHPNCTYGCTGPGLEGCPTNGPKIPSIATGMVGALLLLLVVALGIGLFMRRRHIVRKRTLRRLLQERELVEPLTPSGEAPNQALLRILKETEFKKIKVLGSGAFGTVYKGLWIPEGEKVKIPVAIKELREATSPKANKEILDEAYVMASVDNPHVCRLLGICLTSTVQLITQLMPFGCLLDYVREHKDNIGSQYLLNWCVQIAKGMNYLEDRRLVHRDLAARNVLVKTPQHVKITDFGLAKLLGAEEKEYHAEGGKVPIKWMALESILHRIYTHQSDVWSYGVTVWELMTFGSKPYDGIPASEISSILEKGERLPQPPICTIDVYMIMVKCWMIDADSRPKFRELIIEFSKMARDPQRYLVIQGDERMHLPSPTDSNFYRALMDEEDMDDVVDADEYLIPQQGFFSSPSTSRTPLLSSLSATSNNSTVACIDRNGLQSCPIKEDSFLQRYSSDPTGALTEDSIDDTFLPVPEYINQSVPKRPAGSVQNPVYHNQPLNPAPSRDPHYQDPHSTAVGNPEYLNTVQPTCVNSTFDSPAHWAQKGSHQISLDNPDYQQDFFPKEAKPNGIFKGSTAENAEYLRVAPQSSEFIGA
The experiment in a line: Wild-type EGFR enzyme HTRF inhibition assay. In kind it is biochemical. The note with it: 25 μM ATP, read-out: EGFR WT IC50. As for the experimental part: as §4, §5, §6, §7
Wild-Type EGFR Enzyme Reaction Mixture System:
0.05 nM Wild-type EGFR, 1 μM biotin-TK1 peptide, 25 μM ATP enzyme buffer, a total of which was 10 μL. The reaction plate was white Proxiplate 384-Plus plate (PerkinElmer) and the mixture was reacted at 23° C. for 60 minutes.
as §8, §9

Experiment [5] deals with human skin squamous cell A431 xenograft (CDX). The experiment in a line: Selectivity study in vivo, A431 xenograft (CDX) model. The arrangement: species or system BALB/c nude mice. Particulars: Table 5 experiment, AZD9291 5 mg/kg; for Tumor Volume (mm^3) 4 days: day 4, oral once daily: 33, 34, 40, 42, 43 20 mg/kg; for Tumor Volume (mm^3) 11 days: day 11, oral once daily: 33, 34, 40, 42, 43 20 mg/kg; for Tumor Volume (mm^3) 18 days: day 18, oral once daily: 33, 34, 40, 42, 43 20 mg/kg. On the procedure: In this model, the less inhibitory effect on the tumor, the better the selectivity in vivo.
The selective experiments in vivo were performed on BALB/c nude mice that subcutaneously implanted human skin squamous cell A431 xenograft (CDX).
BALB/c nude mice, female, 6-8 weeks, weighted about 18-20 grams, the mice were kept in a special pathogen-free environment and in a single ventilation cage (5 mice per cage). The bedding and water of all the cages were disinfected before use. All animals were free to obtain standard certified commercial laboratory diets. All mice were purchased from mice of Shanghai BK Laboratory Animal Co., LTD for research. The tumor tissue (20-30 mm^3) was implanted subcutaneously in the […] of each mouse for tumor growth. The experiment was started when the average tumor volume reached about 150-200 mm^3. The test compound was orally administered (compounds 17, 30, 37 and 38 were administered once daily at 20 mg/kg, the compound AZD9291 was administered once daily at 5 mg/kg, the compound CO-1686 was administered twice daily at 50 mg/kg, the compound Erlotinib was administered once daily at 75 mg/kg and the compound Afatinib was administered once daily at 7.5 mg/kg, 21 days of continuous administration. The data were shown in Table 4; compounds 33, 34, 40, 42 and 43 were administered once daily at 20 mg/kg and compound AZD9291 was administered once daily at5 mg/kg, 21 days of continuous administration. The tumor volume was measured twice a week with a two-dimensional caliper and the volume was measured in cubic millimeters and calculated by the following formula: V=V=0.5 a×b2, where a and b were the major and minor diameters of the tumor, respectively.

Experiment [6] concerns the target T3, EGFR d746-750/T790M (Homo sapiens, UniProt P00533, DEL746-750/T790M).
T3 construct: purchased Carna Biosciences (Japan)
The experiment in a line: EGFR d746-750/T790M enzyme HTRF inhibition assay. It counts as biochemical. Particulars: 40 μM ATP. On the procedure:
as §4, §5, §6, §7
EGFR d746-750/T790M Enzyme Reaction Mixture System:
0.025 nM EGFR d746-750/T790M, 1 μM biotin-TK1 peptide, 40 μM ATP enzyme buffer, a total of which was 10 μL. The reaction plate was white Proxiplate 384-Plus plate (PerkinElmer) and the mixture was reacted at 23° C. for 60 minutes.
as §8, §9

Experiment [7] concerns NCI-H1975 lung cancer patient-derived xenograft (CDX). The experiment in a line: Pharmacodynamics study in vivo, NCI-H1975 xenograft (CDX) model. The arrangement: species or system BALB/c nude mice. The note with it: AZD9291 5 mg/kg; for Tumor Volume (mm^3) 4 days: day 4, oral daily: compound 30 10 mg/kg, 33, 34, 40, 42, 43 20 mg/kg; for Tumor Volume (mm^3) 7 days: day 7, oral daily: compound 30 10 mg/kg, 33, 34, 40, 42, 43 20 mg/kg; for Tumor Volume (mm^3) 11 days: day 11, oral daily: compound 30 10 mg/kg, 33, 34, 40, 42, 43 20 mg/kg; for Tumor Volume (mm^3) 14 days: day 14, oral daily: compound 30 10 mg/kg, 33, 34, 40, 42, 43 20 mg/kg; for Tumor Volume (mm^3) 18 days: day 18, oral daily: compound 30 10 mg/kg, 33, 34, 40, 42, 43 20 mg/kg. As for the experimental part:
For example, after 21 days of administration, the tumor volume of the representative compounds 30, 33, 34, 40, 42 and 43 decreased from the beginning of about 149 mm^3 to 3-39 mm^3.
The pharmacological experiments in vivo were performed on BALB/c nude mice that subcutaneously implanted NCI-H1975 lung cancer […] xenograft (CDX).
BALB/c nude mice, female, 6-8 weeks, weighted about 18-22 grams, the mice were kept in a special pathogen-free environment, and in a single ventilation cage (5 mice per cage). The bedding and water of all the cages were disinfected before use. All animals were free to obtain standard certified commercial laboratory diets. A total of 100 mice were purchased from Beijing Vital for research. The tumor tissue (20-30 mm^3) was implanted subcutaneously in the […] of each mouse for tumor growth. The experiment was started when the average tumor volume reached about 150-200 mm^3. The test compound was orally administered daily (compound 30 was administered at 10 mg/kg, compound 33, 34, 40, 42 and 43 were administered at 20 mg/kg and compound AZD9291 was administered continuously for 21 days at 5 mg/kg, the data were shown in Table 3). The tumor volume was measured twice a week with a two-dimensional caliper and the volume was measured in cubic millimeters and calculated by the following formula: V=V=0.5 a×b2, where a and b were the major and minor diameters of the tumor, respectively.

T3 sequence (P00533 with tags, fused parts or gaps DEL746-750/T790M limits assumed): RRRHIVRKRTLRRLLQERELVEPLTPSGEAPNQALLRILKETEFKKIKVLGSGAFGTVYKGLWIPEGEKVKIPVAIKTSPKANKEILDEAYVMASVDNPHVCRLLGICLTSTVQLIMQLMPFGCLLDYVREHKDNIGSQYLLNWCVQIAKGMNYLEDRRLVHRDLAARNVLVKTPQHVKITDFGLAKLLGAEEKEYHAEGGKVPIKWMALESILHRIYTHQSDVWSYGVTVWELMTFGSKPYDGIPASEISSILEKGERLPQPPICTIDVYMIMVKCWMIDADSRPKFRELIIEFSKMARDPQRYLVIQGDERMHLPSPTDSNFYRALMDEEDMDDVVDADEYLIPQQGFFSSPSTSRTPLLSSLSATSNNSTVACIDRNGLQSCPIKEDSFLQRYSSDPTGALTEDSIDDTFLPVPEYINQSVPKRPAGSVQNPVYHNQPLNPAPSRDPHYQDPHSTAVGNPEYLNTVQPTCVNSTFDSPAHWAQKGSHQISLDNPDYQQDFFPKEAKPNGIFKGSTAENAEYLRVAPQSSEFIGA

For the compound `C=CC(=O)Nc1cc(Nc2nccc(-c3cn4c5c(cccc35)OCCC4)n2)c(OC)cc1N(C)CCN(C)C` [Embodiment 40, N-(5-((4-(3,4-Dihydro-2H-[1,4]oxazepino[2,3,4-hi]indol-7-yl)pyrimidin-2-yl)amino)-2-((2-(dimethylamino)ethyl)(methyl)amino)-4-methoxyphenyl)acrylamide], in experiment [1], the IC50 is 279 nM and the “A431:NCI-H1975 (ratio)” value was found to be 12. Also, in experiment [2], the IC50 was 23 nM. In addition, the IC50 in experiment [3] was determined as 0.3 nM. In addition, the IC50 in experiment [4] is 0.8 nM. For the same compound, in experiment [5], the “Tumor Volume (mm^3) 4 days” value is 212 mm^3, the “Tumor Volume (mm^3) 11 days” value was 445 mm^3 and the “Tumor Volume (mm^3) 18 days” value was found to be 895 mm^3. The IC50 in experiment [6] amounted to 0.4 nM. For the same compound, in experiment [7], the “Tumor Volume (mm^3) 4 days” value is reported as 108 mm^3, the “Tumor Volume (mm^3) 7 days” value is given as 85 mm^3, the “Tumor Volume (mm^3) 11 days” value was found to be 91 mm^3 and the “Tumor Volume (mm^3) 14 days” value was 91 mm^3. Besides, in experiment [7], the “Tumor Volume (mm^3) 18 days” value is 84 mm^3.

Turning to `C=CC(=O)Nc1cc(Nc2nccc(-c3cn4c5c(cccc35)OC3(CC3)C4)n2)c(OC)cc1N(C)CC(C)(C)N(C)C` [Embodiment 43, N-(5-((4-(3H-Spiro[[1,4]oxazino[2,3,4-hi]indole-2,1′-cyclopropan]-6-yl)pyrimidin-2-yl)amino)-2-((2-(dimethylamino)-2-methylpropyl)(methyl)amino)-4-methoxyphenyl)acrylamide], in experiment [1], the IC50 came to 548 nM and the “A431:NCI-H1975 (ratio)” value is on record as 2.1. For the same compound, the IC50 in experiment [2] worked out at 264 nM. For the same compound, in experiment [5], the “Tumor Volume (mm^3) 4 days” value came to 238 mm^3, the “Tumor Volume (mm^3) 11 days” value is reported as 516 mm^3 and the “Tumor Volume (mm^3) 18 days” value is 820 mm^3. In experiment [7], the “Tumor Volume (mm^3) 4 days” value is 92 mm^3, the “Tumor Volume (mm^3) 7 days” value stood at 65 mm^3, the “Tumor Volume (mm^3) 11 days” value stood at 61 mm^3 and the “Tumor Volume (mm^3) 14 days” value was found to be 45 mm^3. The “Tumor Volume (mm^3) 18 days” value in experiment [7] was 23 mm^3.

With `C=CC(=O)Nc1cc(Nc2nccc(-c3c4n(c5ccccc35)CCOC4)n2)c(OC)cc1N(C)CCNC(C)(C)C` [Embodiment 24, N-(2-((2-(tert-Butylamino)ethyl)(methyl)amino)-5-((4-(3,4-dihydro-1H-[1,4]oxazino[4,3-a]indol-10-yl)pyrimidin-2-yl)amino)-4-methoxyphenyl)acrylamide], the IC50 in experiment [1] worked out at 2660 nM; in experiment [2] it was 172 nM; in experiment [3], 1.9 nM; in experiment [4], 36.4 nM; in experiment [6] it was 1.3 nM. The “A431:NCI-H1975 (ratio)” value in experiment [1] is on record as 15.

As to `C=CC(=O)Nc1cc(Nc2nccc(-c3cn4c5c(cccc35)OCC(C)(C)C4)n2)c(OC)cc1N(C)CCN(C)C` [Embodiment 41, N-(5-((4-(3,3-Dimethyl-3,4-dihydro-2H-[1,4]oxazepino[2,3,4-hi]indol-7-yl)pyrimidin-2-yl)amino)-2-((2-(dimethylamino)ethyl)(methyl)amino)-4-methoxyphenyl)acrylamide], the IC50 in experiment [1] came out at 1720 nM; in experiment [2], 201 nM; in experiment [3] it was 1.5 nM; in experiment [4], 4.9 nM; in experiment [6] it was 2.6 nM. In addition, in experiment [1], the “A431:NCI-H1975 (ratio)” value stood at 8.5.

`C=CC(=O)Nc1cc(Nc2nccc(-c3c4n(c5ccccc35)CC(F)(F)CC4)n2)c(OC)cc1N(C)CCN(C)C` [Embodiment 14, N-(5-((4-(7,7-Difluoro-8,9-dihydro-6H-pyrido[1,2-a]indol-10-yl)pyrimidin-2-yl)amino)-2-((2-(dimethylamino)ethyl)(methyl)amino)-4-methoxyphenyl)acrylamide]: the IC50 in experiment [1] turned out to be 134 nM; in experiment [2], 13 nM; in experiment [3], 0.27 nM; in experiment [4], 0.6 nM; in experiment [6], 0.33 nM. Moreover, the “A431:NCI-H1975 (ratio)” value in experiment [1] was determined as 10.3.
